# US20040110802A1, “Antibacterial benzoic acid derivatives” (priority 2002, published 2004)
# Test system: SAUR 9218
# Experiment: MIC Test Method, standard agar dilution
# Assay type: cell-based
# Conditions: agar dilution, Mueller Hinton agar, incubated overnight at 35° C.; lowest concentration that inhibits visible growth; read-out: SAUR 9218 MIC
# Method in brief: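 MIC (μg/ml) was read as the lowest drug level without visible growth of SAUR 9218 after overnight incubation at 35 °C. Inocula of about 10^4 to 10^5 cells per spot were applied to Mueller Hinton agar containing 2-fold serial compound dilutions.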
row,MIC [µg/mL],SMILES
1,> 128,CS(=O)(=O)c1ncc(N2CCOCC2)c(C(=O)Nc2ccc(Br)cc2C(=O)O)n1
2,0.125,C=CCOc1ccccc1-c1cc(C(=O)Nc2ccc(C#N)cc2C(=O)O)no1
3,0.5,N#Cc1ccc(NC(=O)c2cc3cccc(NC(=O)CSc4ccccc4)c3[nH]2)c(C(=O)O)c1
4,> 128,O=C(Nc1ccc(Br)cc1C(=O)O)c1csc(S(=O)(=O)N2CC3CC2CN3Cc2ccccc2)c1 (stereo not drawn)
5,0.25,CCSc1ccc(C(=O)Nc2cccc3cc(C(=O)Nc4ccc(C#N)cc4C(=O)O)[nH]c23)cc1
6,0.5,Cn1c(C(=O)Nc2ccc(C#N)cc2C(=O)O)cc2c(Br)cc(Br)c(N)c21
7,0.125,CCCCCCCC(=O)Nc1cccc2cc(C(=O)Nc3ccc(C#N)cc3C(=O)O)[nH]c12
8,0.125,Cc1noc(C)c1-c1ccc2c(C(=O)Nc3ccc(C#N)cc3C(=O)O)noc2c1
9,1,CCn1c(C(=O)Nc2ccc(C#N)cc2C(=O)O)cc2ccccc21
10,0.125,N#Cc1ccc(NC(=O)c2noc3cc(-c4cccc(CO)c4)ccc23)c(C(=O)O)c1
11,0.125,N#Cc1ccc(NC(=O)c2cc(-c3ccccc3F)on2)c(C(=O)O)c1
12,1,Cn1c(C(=O)Nc2ccc(C#N)cc2C(=O)O)cc2cccc(NC(=O)Cc3ccncc3)c21.O=C(O)C(F)(F)F
